Assay results reported in patent publication US20040242537A1, “Acetylation method of chitosan” (priority 2001, published 2004).

Conditions: pH 7

- solubility according to pH: rapid decrease in solubility
Substance: chitosan
